# Data published in patent publication US9365533B2, “Coumarin derivative” (NIPPON ZOKI PHARMACEUTICAL CO., LTD., priority 2012, dated 2016).
# Structures can show the parent of a compound that is named as a salt.
# Legend:
# [1] = tested on: cartilage pieces of bovine metacarpophalangeal joint; experiment: Suppressive action to cartilage destruction: release of sGAG induced by IL-1α from cartilage pieces; assay type: cell-based; settings: 25 μmol/L test substance, 2 h pretreatment, human recombinant IL-1α 3 ng/mL, 4 days at 37° C.; for inhibition at 25 µM: Bos taurus, 96 h, read-out: sGAG Releasing Suppressive Rate (%)
# Protocol: Evaluation of Suppressive Action to Cartilage Destruction [Release of sGAG Induced by Interleukin-1α (IL-1α)]
# (1) Incubation of Cartilage Pieces
# Each four cartilage pieces of bovine metacarpophalangeal joint were placed in each well of a 48-well plate and pretreated for 2 hours with a basal medium [D-MEM (Dulbecco's Modified Eagle Medium) containing 2 mmol/L of glutamine, 25 mmol/L of Hepes, 100 μg/mL of streptomycin, 100 IU/mL of penicillin and 5.6 μg/mL of amphotericin B] containing 25 μmol/L of a test substance. Human recombinant IL-1α (3 ng/mL) was added thereto followed by incubating at 37° C. for 4 days in a CO2 incubator set at 5 vol % of CO2. Culture supernatant and cartilage pieces were recovered and stored by freezing until the measurement for each of them.
# (2) Measurement of the Amount of sGAG and Calculation of the Suppressive Rate for the Release of sGAG
# The recovered cartilage pieces were treated with a papain solution [containing 1 mg/mL of papain, 100 mmol/L of sodium phosphate (pH 6.5), 5 mmol/L of L-cysteine and 5 mmol/L of disodium ethylenediaminetetraacetate (EDTA)] at 65° C. for about 16 hours to solubilize. Amount of sGAG in the resulting extract was measured using an sGAG Alcian Blue Binding Kit (Wieslab AB) which is a quantitative kit to which a Alcian blue staining protocol is applied. sGAG in the culture supernatant after the incubation was measured without subjecting to a papain treatment. Each releasing rate of sGAG was determined by the following formula to calculate the suppressive rate for the release of sGAG. Releasing rate (%) of sGAG={(Total sGAG amount in the culture supernatant)/[(Total sGAG amount in the culture supernatant)+(Total sGAG amount in the cartilage pieces)]}×100 Suppressive rate (%) for release of sGAG={[Releasing rate of sGAG (IL-1α stimulation)−Releasing rate of sGAG (Test substance)]/[Releasing rate of sGAG (IL-1α stimulation)−Releasing rate of sGAG (Non-stimulation)]}×100
# HFLS-OA cells = experiment: Suppressive action to TNF-α-induced proliferation of synovial cells (HFLS-OA), BrdU ELISA; assay type: cell-based; settings: 200 μmol/L test substance, human recombinant TNF-α 10 ng/mL, 5 days, BrdU incorporation increase by TNF-α = 100%; for activity at 200 µM: Synovial cell, 120 h, read-out: Synovial Cell Proliferation Rate (%)
# Protocol: Evaluation of Suppressive Action to Cell Proliferation of Synovial Cells (HFLS-OA) Derived from Tissues of Human Osteoarthritis
# (1) Incubation of HFLS-OA Cells
# HFLS-OA cells were sown onto a 96-well plate so as to make them 10^4 cells/well/100 μL in a D-MEM containing 2 vol % of fetal bovine serum (FBS) and incubated for 24 hours. A test substance (200 μmol/L) and human recombinant TNF-α (10 ng/mL) were added thereto followed by incubating for 5 days.
# (2) Measurement of Action to HFLS-OA Cell Proliferation
# A kit [Cell Proliferation ELISA, BrdU (colorimetric) (Roche Diagnostics)] was used and measurement was conducted according to the protocol attached to the kit. HFLS-OA cells were incubated for 3 days and 10 μL of 5-bromo-2′-deoxyuridine (BrdU) dissolved in a phosphate buffered saline (PBS) (100 μmol/L, pH 7.4) was added to each well followed by incubating for 48 hours more. After the culture supernatant was removed from each well, 200 μL/well of an immobilization/denaturation solution was added thereto and the mixture was allowed to stand for 30 minutes whereby immobilization of the cells and denaturation of DNA were conducted. After the immobilization/denaturation solution was completely removed, 100 μL of a peroxidase-labeled anti-BrdU antibody solution was added thereto and the mixture was made to react at room temperature for 90 minutes. After washing with PBS, 100 μL of a substrate liquid (tetramethylbenzidine) was added to each well and the absorbance was measured. A cell proliferation rate upon addition of each test substance was calculated where an increase in incorporation of BrdU upon addition of TNF-α was defined as 100% of cell proliferation rate.
SMILES,inhibition at 25 µM [1] [%],activity at 200 µM (HFLS-OA cells) [%],sGAG Releasing Suppressive Rate (%) [1] [%],Synovial Cell Proliferation Rate (%) (HFLS-OA cells)
"O=c1oc2c(OS(=O)(=O)c3ccc(-c4ccccc4)cc3)cccc2cc1NS(=O)(=O)c1ccc(-c2ccccc2)cc1 [Compound 66, 2-Oxo-3-[(4-phenylphenyl]sulfonylamino]chromen-8-yl 4-phenylbenzenesulfonate]",38,-37.9,–,–
"O=c1oc2c(OS(=O)(=O)c3cccc(Br)c3)cccc2cc1NS(=O)(=O)c1ccccc1 [Compound 34, 3-(Benzenesulfonamide)-2-oxochromen-8-yl 3-bromobenzenesulfonate]",–,–,109,−31.6
"CCOC(=O)c1ccc(S(=O)(=O)Oc2cccc3cc(NS(=O)(=O)c4cccc([N+](=O)[O-])c4)c(=O)oc23)cc1 [Compound 48, Ethyl 4-[3-[(3-nitrophenyl)sulfonylamino]-2-oxochromen-8-yl]oxysulfonylbenzoate]",122,-34.9,–,–
"CS(=O)(=O)Nc1cc2cccc(OS(=O)(=O)c3cccc(Br)c3)c2oc1=O [Compound 39, 3-(Methanesulfonamide)-2-oxochromen-8-yl 3-bromobenzenesulfonate]",–,–,–,−43.0
"O=c1oc2c(OS(=O)(=O)c3cccc(C(F)(F)F)c3)cccc2cc1NS(=O)(=O)c1ccc(-c2ccccc2)cc1 [Compound 52, 2-Oxo-3-[(4-phenylphenyl)sulfonylamino]chromen-8-yl 3-(trifluoromethyl)benzenesulfonate]",126,-35.5,–,–
"O=c1oc2c(OS(=O)(=O)c3cccc(F)c3)cccc2cc1NS(=O)(=O)c1cccc(F)c1 [Compound 11, 3-[(3-Fluorophenyl)sulfonylamino]-2-oxochromen-8-yl 3-fluorobenzenesulfonate]",–,-90.6,–,–
"Cc1ccccc1S(=O)(=O)Nc1cc2cccc(OS(=O)(=O)c3ccccc3C)c2oc1=O [Compound 6, 3-(o-Tolylsulfonylamino)-2-oxochromen-8-yl 2-methyl-benzenesulfonate]",–,-77.4,–,–
"O=c1oc2c(OS(=O)(=O)c3ccccc3F)cccc2cc1NS(=O)(=O)c1ccccc1F [Compound 12, 3-[(2-Fluorophenyl)sulfonylamino]-2-oxochromen-8-yl 2-fluorobenzenesulfonate]",–,-91.8,–,–
"O=c1oc2c(OS(=O)(=O)c3ccc(C(F)(F)F)cc3)cccc2cc1NS(=O)(=O)c1cccc([N+](=O)[O-])c1 [Compound 69, 3-[(3-Nitrophenyl)sulfonylamino]-2-oxochromen-8-yl 4-(trifluoromethyl)benzenesulfonate]",126,-40.6,–,–
"O=c1oc2c(OS(=O)(=O)c3cccs3)cccc2cc1NS(=O)(=O)c1cccc([N+](=O)[O-])c1 [Compound 43, 3-[(3-Nitrophenyl)sulfonylamino]-2-oxochromen-8-yl thiophene-2-sulfonate]",107,-30.3,–,–
"O=c1oc2c(OS(=O)(=O)c3cccc(C(F)(F)F)c3)cccc2cc1NS(=O)(=O)c1ccc(C(F)(F)F)cc1 [Compound 68, 2-Oxo-3-[[4-(trifluoromethyl)phenyl]sulfonylamino]-chromen-8-yl 3-(trifluoromethyl)benzenesulfonate]",124,-42.8,–,–
"N#Cc1cccc(S(=O)(=O)Nc2cc3cccc(OS(=O)(=O)c4cccc(C#N)c4)c3oc2=O)c1 [Compound 14, 3-[(3-Cyanophenyl)sulfonylamino]-2-oxochromen-8-yl 3-cyanobenzenesulfonate]",66,-60.3,–,–
"O=c1oc2c(OS(=O)(=O)c3ccccc3[N+](=O)[O-])cccc2cc1NS(=O)(=O)c1ccccc1[N+](=O)[O-] [Compound 18, 3-[(2-Nitrophenyl)sulfonylamino]-2-oxochromen-8-yl 2-nitrobenzenesulfonate]",81,-23.8,–,–
"Nc1ccc(S(=O)(=O)Oc2cccc3cc(NS(=O)(=O)c4cccc(C(F)(F)F)c4)c(=O)oc23)cc1 [Compound 46, 2-Oxo-3-[[3-(trifluoromethyl)phenyl]sulfonylamino]-chromen-8-yl 4-aminobenzenesulfonate hydrochloride]",98,-37,–,–
"N#Cc1ccc(S(=O)(=O)Nc2cc3cccc(OS(=O)(=O)c4ccc(C#N)cc4)c3oc2=O)cc1 [Compound 13, 3-[(4-Cyanophenyl)sulfonylamino]-2-oxochromen-8-yl 4-cyanobenzenesulfonate]",44,-54.1,–,–
"N#Cc1ccccc1S(=O)(=O)Nc1cc2cccc(OS(=O)(=O)c3ccccc3C#N)c2oc1=O [Compound 15, 3-[(2-Cyanophenyl)sulfonylamino]-2-oxochromen-8-yl 2-cyanobenzenesulfonate]",–,-3.3,–,–
"O=c1oc2c(OS(=O)(=O)c3ccc(-c4ccccc4)cc3)cccc2cc1NS(=O)(=O)c1cccc([N+](=O)[O-])c1 [Compound 62, 3-[(3-Nitrophenyl)sulfonylamino]-2-oxochromen-8-yl 4-phenylbenzenesulfonate]",140,-49.2,–,–
"COc1cccc(S(=O)(=O)Nc2cc3cccc(OS(=O)(=O)c4cccc(OC)c4)c3oc2=O)c1 [Compound 2, 3-[(3-Methoxyphenyl)sulfonylamino]-2-oxochromen-8-yl 3-methoxybenzenesulfonate]",–,-52.2,–,–
"CS(=O)(=O)Nc1cc2cccc(OS(=O)(=O)c3ccccc3)c2oc1=O [Compound 40, 3-(Methanesulfonamide)-2-oxochromen-8-yl benzene-sulfonate]",–,–,–,−40.5
"O=c1oc2c(OS(=O)(=O)c3ccc(Cl)cc3)cccc2cc1NS(=O)(=O)c1ccc(Cl)cc1 [Compound 7, 3-[(4-Chlorophenyl)sulfonylamino]-2-oxochromen-8-yl 4-chlorobenzenesulfonate]",–,-92.5,–,–
"Cc1cccc(S(=O)(=O)Nc2cc3cccc(OS(=O)(=O)c4cccc(C)c4)c3oc2=O)c1 [Compound 5, 3-(m-Tolylsulfonylamino)-2-oxochromen-8-yl 3-methyl-benzenesulfonate]",–,-84.9,–,–
"O=c1oc2c(OS(=O)(=O)c3ccccc3Cl)cccc2cc1NS(=O)(=O)c1ccccc1Cl [Compound 9, 3-[(2-Chlorophenyl)sulfonylamino]-2-oxochromen-8-yl 2-chlorobenzenesulfonate]",–,-88.8,–,–
"Cc1ccc(S(=O)(=O)Nc2cc3cccc(OS(=O)(=O)c4ccc(C)cc4)c3oc2=O)cc1 [Compound 4, 2-Oxo-3-(p-tolylsulfonylamino)chromen-8-yl 4-methyl-benzenesulfonate]",–,-88.1,–,–
"COc1ccccc1S(=O)(=O)Nc1cc2cccc(OS(=O)(=O)c3ccccc3OC)c2oc1=O [Compound 3, 3-[(2-Methoxyphenyl)sulfonylamino]-2-oxochromen-8-yl 2-methoxybenzenesulfonate]",–,-65.1,–,–
"O=c1oc2c(OS(=O)(=O)c3cccc(Cl)c3)cccc2cc1NS(=O)(=O)c1cccc(Cl)c1 [Compound 8, 3-[(3-Chlorophenyl)sulfonylamino]-2-oxochromen-8-yl 3-chlorobenzenesulfonate]",–,-94.4,–,–
"O=c1oc2c(OS(=O)(=O)c3ccc(F)cc3)cccc2cc1NS(=O)(=O)c1ccc(F)cc1 [Compound 10, 3-[(4-Fluorophenyl)sulfonylamino]-2-oxochromen-8-yl 4-fluorobenzenesulfonate]",–,-34.9,–,–
